ChEMBL document CHEMBL3875175, “Multi-targeting exploration of new 2-aminothiazolyl quinolones: Synthesis, antimicrobial evaluation, interaction with DNA, combination with topoisomerase IV and penetrability into cells” (Eur J Med Chem, 2016)
≈ marks a conversion by molar mass, not a printed value. Calls of active or inactive are those of the source. No cut-off for these calls is given here.

Tests used:
Candida albicans = assay: Antifungal activity against Candida albicans ATCC 76615 after 24 hrs by two fold serial dilution method; type: functional; conditions: ATCC 76615, 24 h
[1] = Antifungal activity against Candida utilis after 24 hrs by two fold serial dilution method; type: functional; conditions: Cyberlindnera jadinii
Escherichia coli [2] = assay: Antibacterial activity against Escherichia coli DH52 after 24 hrs by two fold serial dilution method; type: functional; conditions: DH52, 24 h
Escherichia coli [3] = assay: Antibacterial activity against Escherichia coli JM109 after 24 hrs by two fold serial dilution method; type: functional; conditions: JM109, 24 h
Aspergillus flavus [4] = assay: Antifungal activity against Aspergillus flavus after 24 hrs by two fold serial dilution method; type: functional
Staphylococcus aureus [5] = assay: Antibacterial activity against Staphylococcus aureus ATCC 25923 after 24 hrs by two fold serial dilution method; type: functional; conditions: ATCC 25923, 24 h
[6] = Antifungal activity against Candida mycoderma after 24 hrs by two fold serial dilution method; type: functional; conditions: Pichia norvegensis
Shigella dysenteriae [7] = assay: Antibacterial activity against Shigella dysenteriae after 24 hrs by two fold serial dilution method; type: functional
Saccharomyces cerevisiae = assay: Antifungal activity against Beer yeast after 24 hrs by two fold serial dilution method; type: functional
Pseudomonas aeruginosa = assay: Antibacterial activity against Pseudomonas aeruginosa ATCC 27853 after 24 hrs by two fold serial dilution method; type: functional; conditions: ATCC 27853, 24 h
Bacillus spizizenii = assay: Antibacterial activity against Bacillus subtilis ATCC 6633 after 24 hrs by two fold serial dilution method; type: functional; conditions: ATCC 6633, 24 h
Staphylococcus aureus [8] = assay: Antibacterial activity against methicillin-resistant Staphylococcus aureus N315 after 24 hrs by two fold serial dilution method; type: functional; conditions: N315, 24 h
Proteus vulgaris = assay: Antibacterial activity against Bacillus proteus ATCC 13315 after 24 hrs by two fold serial dilution method; type: functional; conditions: ATCC 13315, 24 h
Micrococcus luteus = assay: Antibacterial activity against Micrococcus luteus ATCC 4698 after 24 hrs by two fold serial dilution method; type: functional; conditions: NCTC 2665, 24 h
Salmonella typhi [9] = assay: Antibacterial activity against Bacillus typhi after 24 hrs by two fold serial dilution method; type: functional, Salmonella enterica subsp. enterica serovar Typhi; conditions: Salmonella enterica
Bos taurus [10] = species: Bos taurus; assay: Binding affinity to calf thymus DNA by UV-Visible spectroscopic method
[11] = Cytotoxicity against mouse L929 cells assessed as reduction in cell viability after 48 hrs by MTT assay; type: toxicity
Staphylococcus aureus [12] = assay: Induction of membrane permeabilization in methicillin-resistant Staphylococcus aureus N315 at 12 times MIC measured for 2 hrs by propidium iodide staining based fluorescence assay; type: functional
Salmonella typhi [13] = assay: Potency index, ratio of norfloxacin MIC to compound MIC for Bacillus typhi; type: functional, Salmonella enterica subsp. enterica serovar Typhi
Salmonella typhi [14] = assay: Potency index, ratio of chloromycin MIC to compound MIC for Bacillus typhi; type: functional, Salmonella enterica subsp. enterica serovar Typhi
Bos taurus [15] = species: Bos taurus; assay: Binding affinity to calf thymus DNA assessed as DNA intercalation up to 1.75 x 10^-5mol/L by neutral red dye based UV-Visible spectroscopic method
Aspergillus flavus [16] = assay: Potency index, ratio of fluconazole MIC80 to compound MIC80 for Aspergillus flavus; type: functional
Staphylococcus aureus [17] = assay: Antibacterial activity against methicillin-resistant Staphylococcus aureus N315 after 15 days by serial passage resistance development assay; type: functional
Salmonella typhi [18] = assay: Induction of membrane permeabilization in Bacillus typhi at 12 times MIC measured for 2 hrs by propidium iodide staining based fluorescence assay; type: functional; conditions: Salmonella enterica subsp. enterica serovar Typhi
Staphylococcus aureus [19] = assay: Bactericidal activity against methicillin-resistant Staphylococcus aureus N315 assessed as log reduction in bacterial count at 4 times MIC up to 1 hr by time-kill kinetic assay; type: functional
Bos taurus [20] = species: Bos taurus; assay: Binding affinity to calf thymus DNA assessed as hypochromism up to 9 x 10^-5mol/L by UV-Visible spectroscopic method
Shigella dysenteriae [21] = assay: Potency index, ratio of chloromycin MIC to compound MIC for Shigella dysenteriae; type: functional
Shigella dysenteriae [22] = assay: Potency index, ratio of norfloxacin MIC to compound MIC for Shigella dysenteriae; type: functional

SMILES	MIC80 (Candida albicans) [µg/mL]	MIC80 [1] [µg/mL]	MIC (Escherichia coli [2]) [µg/mL]	MIC (Escherichia coli [3]) [µg/mL]	MIC80 (Aspergillus flavus [4]) [µg/mL]	MIC (Staphylococcus aureus [5]) [µg/mL]	MIC80 [6] [µg/mL]	MIC (Shigella dysenteriae [7]) [µg/mL]	MIC80 (Saccharomyces cerevisiae) [µg/mL]	MIC (Pseudomonas aeruginosa) [µg/mL]	MIC (Bacillus spizizenii) [µg/mL]	MIC (Staphylococcus aureus [8]) [µg/mL]	MIC (Proteus vulgaris) [µg/mL]	MIC (Micrococcus luteus) [µg/mL]	MIC (Salmonella typhi [9]) [µg/mL]	also measured
Nc1ncc(-c2cn(Cc3ccc(Cl)cc3)c3c(F)cc(F)cc3c2=O)s1	512 (≈ 1270 µM)	256 (≈ 634 µM)	64 (≈ 158 µM)	128 (≈ 317 µM)	64 (≈ 158 µM)	128 (≈ 317 µM)	256 (≈ 634 µM)	16 (≈ 39.6 µM)	128 (≈ 317 µM)	128 (≈ 317 µM)	256 (≈ 634 µM)	64 (≈ 158 µM)	32 (≈ 79.2 µM)	64 (≈ 158 µM)	32 (≈ 79.2 µM)	–
Nc1ncc(-c2cn(Cc3cccc(Cl)c3)c3c(F)cc(F)cc3c2=O)s1	128 (≈ 317 µM)	256 (≈ 634 µM)	32 (≈ 79.2 µM)	256 (≈ 634 µM)	64 (≈ 158 µM)	64 (≈ 158 µM)	64 (≈ 158 µM)	128 (≈ 317 µM)	64 (≈ 158 µM)	64 (≈ 158 µM)	256 (≈ 634 µM)	128 (≈ 317 µM)	256 (≈ 634 µM)	128 (≈ 317 µM)	32 (≈ 79.2 µM)	–
Nc1ncc(-c2cn(Cc3ccc(F)cc3)c3c(F)cc(F)cc3c2=O)s1	32 (≈ 82.6 µM)	64 (≈ 165 µM)	32 (≈ 82.6 µM)	16 (≈ 41.3 µM)	32 (≈ 82.6 µM)	32 (≈ 82.6 µM)	16 (≈ 41.3 µM)	4 (≈ 10.3 µM)	32 (≈ 82.6 µM)	64 (≈ 165 µM)	128 (≈ 330 µM)	16 (≈ 41.3 µM)	64 (≈ 165 µM)	16 (≈ 41.3 µM)	16 (≈ 41.3 µM)	–
C#CCn1cc(-c2cnc(N)s2)c(=O)c2cc(F)cc(F)c21	16 (≈ 50.4 µM)	32 (≈ 101 µM)	16 (≈ 50.4 µM)	32 (≈ 101 µM)	8 (≈ 25.2 µM)	8 (≈ 25.2 µM)	8 (≈ 25.2 µM)	8 (≈ 25.2 µM)	8 (≈ 25.2 µM)	16 (≈ 50.4 µM)	16 (≈ 50.4 µM)	8 (≈ 25.2 µM)	32 (≈ 101 µM)	32 (≈ 101 µM)	1 (≈ 3.15 µM)	K (Bos taurus [10]): 0.538 ×10⁴ L/mol; IC50 at 48 h [11]: 289 µg/mL (≈ 911 µM); Activity (Staphylococcus aureus [12]): Active; Ratio (Salmonella typhi [13]): 4; Ratio (Salmonella typhi [14]): 32; Activity (Bos taurus [15]): Active; Ratio (Aspergillus flavus [16]): 32; Activity (Staphylococcus aureus [17]): Active; Activity (Salmonella typhi [18]): Active; Activity (Staphylococcus aureus [19]): 3 log10CFU/ml; Activity (Bos taurus [20]): Active
OC(Cn1cncn1)(Cn1cncn1)c1ccc(F)cc1F [FLUCONAZOLE]	1 (≈ 3.27 µM)	8 (≈ 26.1 µM)	–	–	256 (≈ 836 µM)	–	4 (≈ 13.1 µM)	–	16 (≈ 52.2 µM)	–	–	–	–	–	–	–
Nc1ncc(-c2cn(Cc3ccc([N+](=O)[O-])cc3)c3c(F)cc(F)cc3c2=O)s1	32 (≈ 77.2 µM)	256 (≈ 618 µM)	32 (≈ 77.2 µM)	128 (≈ 309 µM)	64 (≈ 154 µM)	256 (≈ 618 µM)	128 (≈ 309 µM)	256 (≈ 618 µM)	64 (≈ 154 µM)	64 (≈ 154 µM)	128 (≈ 309 µM)	128 (≈ 309 µM)	128 (≈ 309 µM)	128 (≈ 309 µM)	64 (≈ 154 µM)	–
COc1ccc(Cn2cc(-c3cnc(N)s3)c(=O)c3cc(F)cc(F)c32)cc1	256 (≈ 641 µM)	512 (≈ 1280 µM)	64 (≈ 160 µM)	128 (≈ 320 µM)	64 (≈ 160 µM)	256 (≈ 641 µM)	256 (≈ 641 µM)	128 (≈ 320 µM)	64 (≈ 160 µM)	64 (≈ 160 µM)	128 (≈ 320 µM)	256 (≈ 641 µM)	256 (≈ 641 µM)	64 (≈ 160 µM)	64 (≈ 160 µM)	–
CCCn1cc(-c2cnc(N)s2)c(=O)c2cc(F)cc(F)c21	32 (≈ 99.6 µM)	64 (≈ 199 µM)	64 (≈ 199 µM)	64 (≈ 199 µM)	32 (≈ 99.6 µM)	16 (≈ 49.8 µM)	32 (≈ 99.6 µM)	4 (≈ 12.4 µM)	16 (≈ 49.8 µM)	16 (≈ 49.8 µM)	32 (≈ 99.6 µM)	32 (≈ 99.6 µM)	64 (≈ 199 µM)	16 (≈ 49.8 µM)	16 (≈ 49.8 µM)	Ratio (Shigella dysenteriae [21]): 4; Ratio (Shigella dysenteriae [22]): 4
CCCCCCCCCCCCn1cc(-c2cnc(N)s2)c(=O)c2cc(F)cc(F)c21	128 (≈ 286 µM)	64 (≈ 143 µM)	256 (≈ 572 µM)	128 (≈ 286 µM)	256 (≈ 572 µM)	512 (≈ 1140 µM)	32 (≈ 71.5 µM)	128 (≈ 286 µM)	128 (≈ 286 µM)	32 (≈ 71.5 µM)	64 (≈ 143 µM)	128 (≈ 286 µM)	256 (≈ 572 µM)	128 (≈ 286 µM)	64 (≈ 143 µM)	–
CCCCCn1cc(-c2cnc(N)s2)c(=O)c2cc(F)cc(F)c21	64 (≈ 183 µM)	64 (≈ 183 µM)	32 (≈ 91.6 µM)	64 (≈ 183 µM)	16 (≈ 45.8 µM)	256 (≈ 733 µM)	32 (≈ 91.6 µM)	16 (≈ 45.8 µM)	128 (≈ 366 µM)	16 (≈ 45.8 µM)	64 (≈ 183 µM)	32 (≈ 91.6 µM)	64 (≈ 183 µM)	128 (≈ 366 µM)	16 (≈ 45.8 µM)	–
CCCCCCCCCCn1cc(-c2cnc(N)s2)c(=O)c2cc(F)cc(F)c21	64 (≈ 153 µM)	128 (≈ 305 µM)	64 (≈ 153 µM)	64 (≈ 153 µM)	64 (≈ 153 µM)	512 (≈ 1220 µM)	64 (≈ 153 µM)	64 (≈ 153 µM)	64 (≈ 153 µM)	64 (≈ 153 µM)	256 (≈ 610 µM)	256 (≈ 610 µM)	128 (≈ 305 µM)	128 (≈ 305 µM)	256 (≈ 610 µM)	–
CCn1cc(C(=O)O)c(=O)c2cc(F)c(N3CCNCC3)cc21 [NORFLOXACIN]	–	–	1 (≈ 3.13 µM)	1 (≈ 3.13 µM)	–	2 (≈ 6.26 µM)	–	16 (≈ 50.1 µM)	–	16 (≈ 50.1 µM)	4 (≈ 12.5 µM)	8 (≈ 25.1 µM)	8 (≈ 25.1 µM)	2 (≈ 6.26 µM)	4 (≈ 12.5 µM)	–
Nc1ncc(-c2cn(Cc3cccc(F)c3)c3c(F)cc(F)cc3c2=O)s1	64 (≈ 165 µM)	64 (≈ 165 µM)	128 (≈ 330 µM)	128 (≈ 330 µM)	64 (≈ 165 µM)	64 (≈ 165 µM)	32 (≈ 82.6 µM)	64 (≈ 165 µM)	64 (≈ 165 µM)	64 (≈ 165 µM)	128 (≈ 330 µM)	32 (≈ 82.6 µM)	32 (≈ 82.6 µM)	128 (≈ 330 µM)	32 (≈ 82.6 µM)	–
Nc1ncc(-c2cn(Cc3ccccc3Cl)c3c(F)cc(F)cc3c2=O)s1	128 (≈ 317 µM)	64 (≈ 158 µM)	128 (≈ 317 µM)	128 (≈ 317 µM)	64 (≈ 158 µM)	128 (≈ 317 µM)	64 (≈ 158 µM)	64 (≈ 158 µM)	128 (≈ 317 µM)	32 (≈ 79.2 µM)	256 (≈ 634 µM)	64 (≈ 158 µM)	256 (≈ 634 µM)	64 (≈ 158 µM)	128 (≈ 317 µM)	–
Nc1ncc(-c2cn(Cc3ccccc3F)c3c(F)cc(F)cc3c2=O)s1	64 (≈ 165 µM)	128 (≈ 330 µM)	64 (≈ 165 µM)	64 (≈ 165 µM)	32 (≈ 82.6 µM)	32 (≈ 82.6 µM)	64 (≈ 165 µM)	32 (≈ 82.6 µM)	64 (≈ 165 µM)	128 (≈ 330 µM)	64 (≈ 165 µM)	64 (≈ 165 µM)	128 (≈ 330 µM)	64 (≈ 165 µM)	8 (≈ 20.7 µM)	–
CCCCCCCn1cc(-c2cnc(N)s2)c(=O)c2cc(F)cc(F)c21	32 (≈ 84.8 µM)	64 (≈ 170 µM)	32 (≈ 84.8 µM)	128 (≈ 339 µM)	64 (≈ 170 µM)	256 (≈ 678 µM)	256 (≈ 678 µM)	32 (≈ 84.8 µM)	16 (≈ 42.4 µM)	32 (≈ 84.8 µM)	64 (≈ 170 µM)	128 (≈ 339 µM)	32 (≈ 84.8 µM)	256 (≈ 678 µM)	64 (≈ 170 µM)	–
O=C(N[C@H](CO)[C@H](O)c1ccc([N+](=O)[O-])cc1)C(Cl)Cl [CHLORAMPHENICOL]	–	–	32 (≈ 99 µM)	32 (≈ 99 µM)	–	16 (≈ 49.5 µM)	–	16 (≈ 49.5 µM)	–	32 (≈ 99 µM)	32 (≈ 99 µM)	16 (≈ 49.5 µM)	32 (≈ 99 µM)	8 (≈ 24.8 µM)	32 (≈ 99 µM)	–
